Data as given in US11919901B2 (Syndax Pharmaceuticals, Inc., priority 2021, dated 2024).

Legend:
hERG = hERG (Homo sapiens (Human), UniProt Q12809); experiment: Patch clamp assay (hERG tail currents, whole-cell); type: cell-based; details: hERG transfected HEK 293 cells; for hERG % Remaining 10 μM: 10 μM compound; for hERG % Remaining 30 μM: 30 μM compound
Menin-MLL = Menin-MLL (Homo sapiens (Human), UniProt O00255); experiment: Determination of binding constants (Ki) to Menin-MLL (HTRF); details: HTRF, 0.25 nM H-FL-Menin, 3.2 nM FITC-MLL-4-43, 24 hr incubation; for Ki: read-out: Menin-MLL Ki HTRF Assay: Ki
Chain of Menin-MLL (O00255 whole entry): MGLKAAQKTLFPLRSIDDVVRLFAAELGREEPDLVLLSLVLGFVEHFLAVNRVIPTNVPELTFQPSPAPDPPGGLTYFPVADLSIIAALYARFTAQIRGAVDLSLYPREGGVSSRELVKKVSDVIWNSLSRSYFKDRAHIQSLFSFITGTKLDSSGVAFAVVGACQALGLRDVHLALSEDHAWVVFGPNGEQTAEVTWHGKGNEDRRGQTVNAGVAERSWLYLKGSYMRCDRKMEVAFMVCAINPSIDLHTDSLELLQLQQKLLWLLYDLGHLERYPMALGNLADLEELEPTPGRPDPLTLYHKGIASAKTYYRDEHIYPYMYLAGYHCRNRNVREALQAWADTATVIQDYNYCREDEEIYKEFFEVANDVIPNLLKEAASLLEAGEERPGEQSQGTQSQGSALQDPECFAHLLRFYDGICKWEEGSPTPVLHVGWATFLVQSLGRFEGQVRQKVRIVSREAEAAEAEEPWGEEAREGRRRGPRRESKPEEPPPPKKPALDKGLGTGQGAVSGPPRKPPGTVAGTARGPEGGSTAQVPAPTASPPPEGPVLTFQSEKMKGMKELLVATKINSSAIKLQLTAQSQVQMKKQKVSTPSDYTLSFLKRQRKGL

Chain of hERG (Q12809 whole entry): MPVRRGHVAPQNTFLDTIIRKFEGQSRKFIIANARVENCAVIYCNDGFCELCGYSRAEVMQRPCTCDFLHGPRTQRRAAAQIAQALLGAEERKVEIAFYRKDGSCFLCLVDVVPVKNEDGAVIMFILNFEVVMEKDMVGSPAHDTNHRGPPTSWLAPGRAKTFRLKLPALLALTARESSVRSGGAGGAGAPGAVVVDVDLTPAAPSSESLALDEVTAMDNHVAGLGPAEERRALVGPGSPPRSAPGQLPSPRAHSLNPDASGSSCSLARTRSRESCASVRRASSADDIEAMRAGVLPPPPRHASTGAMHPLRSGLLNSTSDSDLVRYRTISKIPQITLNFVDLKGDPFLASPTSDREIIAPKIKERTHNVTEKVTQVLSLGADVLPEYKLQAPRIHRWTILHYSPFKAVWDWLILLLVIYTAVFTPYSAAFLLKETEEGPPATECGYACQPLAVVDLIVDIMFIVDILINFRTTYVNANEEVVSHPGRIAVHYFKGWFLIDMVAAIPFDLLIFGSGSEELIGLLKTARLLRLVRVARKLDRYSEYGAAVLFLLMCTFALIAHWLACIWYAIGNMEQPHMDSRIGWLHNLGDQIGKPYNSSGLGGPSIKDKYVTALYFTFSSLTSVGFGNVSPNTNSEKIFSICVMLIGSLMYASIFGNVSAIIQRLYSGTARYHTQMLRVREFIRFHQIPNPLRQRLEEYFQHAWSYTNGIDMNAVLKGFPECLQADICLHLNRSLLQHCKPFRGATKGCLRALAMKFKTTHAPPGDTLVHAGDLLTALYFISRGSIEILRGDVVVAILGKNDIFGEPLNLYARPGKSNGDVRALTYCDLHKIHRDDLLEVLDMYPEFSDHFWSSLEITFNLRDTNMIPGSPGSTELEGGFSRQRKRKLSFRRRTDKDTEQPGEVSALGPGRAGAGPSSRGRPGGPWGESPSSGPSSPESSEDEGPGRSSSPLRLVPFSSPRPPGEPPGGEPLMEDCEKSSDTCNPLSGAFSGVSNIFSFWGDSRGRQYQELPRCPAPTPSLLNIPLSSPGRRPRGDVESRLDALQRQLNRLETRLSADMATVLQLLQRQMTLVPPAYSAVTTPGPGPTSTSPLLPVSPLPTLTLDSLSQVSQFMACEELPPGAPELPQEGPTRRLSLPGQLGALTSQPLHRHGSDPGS

SMILES | hERG % Remaining 1 μM (hERG; 1 μM compound) | hERG % Remaining 3 μM (hERG; 3 μM compound) | hERG % Remaining 10 μM (hERG) | hERG % Remaining 30 μM (hERG) | hERG % Remaining 100 μM (hERG; 100 μM compound) | IC50 (hERG) | EC50 (Menin-MLL) | Ki (Menin-MLL)
CC(C)N(C(=O)c1cc(F)ccc1Oc1cncnc1N1CC2(CCN(C[C@@H]3CC[C@@H](NS(=O)(=O)N(C)C)CO3)CC2)C1)C1CC1 [Compound 93, N-Cyclopropyl-2-((4-(7-(((2S,5R)-5-((N,N-dimethylsulfamoyl)amino)tetrahydro-2H-pyran-2-yl)methyl)-2,7-diazaspiro[3.5]nonan-2-yl)pyrimidin-5-yl)oxy)-5-fluoro-N-isopropylbenzamide] | +++ (“+++” means ≥66%) | +++ (“+++” means ≥66%) | +++ (“+++” means ≥66%) | ++ (“++” means ≥33% and <66%) | + (“+” means <33%) | ≥ 50 µM | < 50 nM | < 1 nM
CC(C)N(CC(F)F)C(=O)c1cc(F)ccc1Oc1cncnc1N1CC2(CCN(C[C@@H]3CC[C@@H](NS(=O)(=O)N4CCOCC4)CO3)CC2)C1 [Compound 94, N-(2,2-Difluoroethyl)-5-fluoro-N-isopropyl-2-((4-(7-(((2S,5R)-5-(morpholine-4-sulfonamido)tetrahydro-2H-pyran-2-yl)methyl)-2,7-diazaspiro[3.5]nonan-2-yl)pyrimidin-5-yl)oxy)benzamide] |  |  | +++ (“+++” means ≥66%) | ++ (“++” means ≥33% and <66%) |  |  | < 50 nM | < 1 nM
CC(C)N(CC(F)F)C(=O)c1cc(F)ccc1Oc1cncnc1N1CC2(CCN(C[C@@H]3CC[C@@H](NS(=O)(=O)N(C)C)CO3)CC2)C1 [Compound 95, N-(2,2-Difluoroethyl)-2-((4-(7-(((2S,5R)-5-((N,N-dimethylsulfamoyl)amino)tetrahydro-2H-pyran-2-yl)methyl)-2,7-diazaspiro[3.5]nonan-2-yl)pyrimidin-5-yl)oxy)-5-fluoro-N-isopropylbenzamide] |  |  | +++ (“+++” means ≥66%) | ++ (“++” means ≥33% and <66%) |  | < 25 µM | < 50 nM | < 1 nM
CCN(CC)S(=O)(=O)N[C@@H]1CC[C@@H](CN2CCC3(CC2)CN(c2ncncc2Oc2ccc(F)cc2C(=O)N(CC(F)F)C(C)C)C3)OC1 [Compound 97, 2-((4-(7-(((2S,5R)-5-((N,N-Diethylsulfamoyl)amino)tetrahydro-2H-pyran-2-yl)methyl)-2,7-diazaspiro[3.5]nonan-2-yl)pyrimidin-5-yl)oxy)-N-(2,2-difluoroethyl)-5-fluoro-N-isopropylbenzamide] |  |  | ++ (“++” means ≥33% and <66%) | + (“+” means <33%) |  |  | < 50 nM | < 1 nM
CC(C)N(CC(F)F)C(=O)c1cc(F)ccc1Oc1cncnc1N1CC2(CCN(C[C@@H]3CC[C@@H](NS(=O)(=O)N4CCC4)CO3)CC2)C1 [Compound 99, 2-((4-(7-(((2S,5R)-5-(Azetidine-1-sulfonamido)tetrahydro-2H-pyran-2-yl)methyl)-2,7-diazaspiro[3.5]nonan-2-yl)pyrimidin-5-yl)oxy)-N-(2,2-difluoroethyl)-5-fluoro-N-isopropylbenzamide] |  |  | +++ (“+++” means ≥66%) | ++ (“++” means ≥33% and <66%) |  |  |  | < 1 nM
CC(C)N(CC(F)F)C(=O)c1cc(F)ccc1Oc1cncnc1N1CC2(CCN(C[C@@H]3CC[C@@H](NS(=O)(=O)c4cnn(C)c4)CO3)CC2)C1 [Compound 100, N-(2,2-Difluoroethyl)-5-fluoro-N-isopropyl-2-((4-(7-(((2S,5R)-5-((1-methyl-1H-pyrazole)-4-sulfonamido)tetrahydro-2H-pyran-2-yl)methyl)-2,7-diazaspiro[3.5]nonan-2-yl)pyrimidin-5-yl)oxy)benzamide] |  |  | +++ (“+++” means ≥66%) | +++ (“+++” means ≥66%) |  | ≥ 50 µM |  | < 1 nM
CC(C)N(CC(F)F)C(=O)c1cc(F)ccc1Oc1cncnc1N1CC2(CCN(C[C@@H]3CC[C@@H](NS(=O)(=O)N(C)C(C)C)CO3)CC2)C1 [Compound 101, N-(2,2-Difluoroethyl)-5-fluoro-N-isopropyl-2-((4-(7-(((2S,5R)-5-((N-isopropyl-N-methylsulfamoyl)amino)tetrahydro-2H-pyran-2-yl)methyl)-2,7-diazaspiro[3.5]nonan-2-yl)pyrimidin-5-yl)oxy)benzamide] |  |  |  | + (“+” means <33%) |  |  |  | < 1 nM
CNS(=O)(=O)N[C@@H]1CC[C@@H](CN2CCC3(CC2)CN(c2ncncc2Oc2ccc(F)cc2C(=O)N(CC(F)F)C(C)C)C3)OC1 [Compound 102, N-(2,2-Difluoroethyl)-5-fluoro-N-isopropyl-2-((4-(7-(((2S,5R)-5-((N-methylsulfamoyl)amino)tetrahydro-2H-pyran-2-yl)methyl)-2,7-diazaspiro[3.5]nonan-2-yl)pyrimidin-5-yl)oxy)benzamide] |  |  |  | +++ (“+++” means ≥66%) |  | ≥ 50 µM |  | < 1 nM
CC(C)N(CC(F)F)C(=O)c1cc(F)ccc1Oc1cncnc1N1CC2(CCN(C[C@@H]3CC[C@@H](NS(=O)(=O)c4ccn(C)n4)CO3)CC2)C1 [Compound 103, N-(2,2-Difluoroethyl)-5-fluoro-N-isopropyl-2-((4-(7-(((2S,5R)-5-((1-methyl-1H-pyrazole)-3-sulfonamido)tetrahydro-2H-pyran-2-yl)methyl)-2,7-diazaspiro[3.5]nonan-2-yl)pyrimidin-5-yl)oxy)benzamide] |  |  |  | +++ (“+++” means ≥66%) |  |  |  | < 1 nM
Cc1c(S(=O)(=O)N[C@@H]2CC[C@@H](CN3CCC4(CC3)CN(c3ncncc3Oc3ccc(F)cc3C(=O)N(CC(F)F)C(C)C)C4)OC2)cnn1C [Compound 104, N-(2,2-Difluoroethyl)-2-((4-(7-(((2S,5R)-5-((1,5-dimethyl-1H-pyrazole)-4-sulfonamido)tetrahydro-2H-pyran-2-yl)methyl)-2,7-diazaspiro[3.5]nonan-2-yl)pyrimidin-5-yl)oxy)-5-fluoro-N-isopropylbenzamide] |  |  |  | +++ (“+++” means ≥66%) |  |  |  | < 1 nM
Cc1nn(C)cc1S(=O)(=O)N[C@@H]1CC[C@@H](CN2CCC3(CC2)CN(c2ncncc2Oc2ccc(F)cc2C(=O)N(CC(F)F)C(C)C)C3)OC1 [Compound 105, N-(2,2-Difluoroethyl)-2-((4-(7-(((2S,5R)-5-((1,3-dimethyl-1H-pyrazole)-4-sulfonamido)tetrahydro-2H-pyran-2-yl)methyl)-2,7-diazaspiro[3.5]nonan-2-yl)pyrimidin-5-yl)oxy)-5-fluoro-N-isopropylbenzamide] |  |  |  | +++ (“+++” means ≥66%) |  |  |  | < 1 nM
CC(C)N(CC(F)(F)F)C(=O)c1cc(F)ccc1Oc1cncnc1N1CC2(CCN(C[C@@H]3CC[C@@H](NS(=O)(=O)N(C)C)CO3)CC2)C1 [Compound 107, 2-((4-(7-(((2S,5R)-5-((N,N-Dimethylsulfamoyl)amino)tetrahydro-2H-pyran-2-yl)methyl)-2,7-diazaspiro[3.5]nonan-2-yl)pyrimidin-5-yl)oxy)-5-fluoro-N-isopropyl-N-(2,2,2-trifluoroethyl)benzamide] |  |  | +++ (“+++” means ≥66%) | ++ (“++” means ≥33% and <66%) |  |  | < 50 nM | < 1 nM
CC(C)N(C(=O)c1cc(F)ccc1Oc1cncnc1N1CC2(CCN(C[C@@H]3CC[C@@H](NS(=O)(=O)C4CC4)CO3)CC2)C1)C1CC(F)(F)C1 [Compound 111, 2-((4-(7-(((2S,5R)-5-(Cyclopropanesulfonamido)tetrahydro-2H-pyran-2-yl)methyl)-2,7-diazaspiro[3.5]nonan-2-yl)pyrimidin-5-yl)oxy)-N-(3,3-difluorocyclobutyl)-5-fluoro-N-isopropylbenzamide] |  |  | ++ (“++” means ≥33% and <66%) | + (“+” means <33%) |  |  | < 50 nM | < 1 nM
CC(C)N(C(=O)c1cc(F)ccc1Oc1cncnc1N1CC2(CCN(C[C@@H]3CC[C@@H](NS(=O)(=O)N(C)C)CO3)CC2)C1)C1CC(F)(F)C1 [Compound 113, N-(3,3-Difluorocyclobutyl)-2-((4-(7-(((2S,5R)-5-((N,N-dimethylsulfamoyl)amino)tetrahydro-2H-pyran-2-yl)methyl)-2,7-diazaspiro[3.5]nonan-2-yl)pyrimidin-5-yl)oxy)-5-fluoro-N-isopropylbenzamide] |  |  | +++ (“+++” means ≥66%) | ++ (“++” means ≥33% and <66%) |  |  | < 50 nM | < 1 nM
CCN(CC)S(=O)(=O)N[C@@H]1CC[C@@H](CN2CCC3(CC2)CN(c2ncncc2Oc2ccc(F)cc2C(=O)N(C(C)C)C2CC(F)(F)C2)C3)OC1 [Compound 114, 2-((4-(7-(((2S,5R)-5-((N,N-Diethylsulfamoyl)amino)tetrahydro-2H-pyran-2-yl)methyl)-2,7-diazaspiro[3.5]nonan-2-yl)pyrimidin-5-yl)oxy)-N-(3,3-difluorocyclobutyl)-5-fluoro-N-isopropylbenzamide] |  |  | + (“+” means <33%) | + (“+” means <33%) |  |  | < 50 nM | < 1 nM
CC(C)N(C(=O)c1cc(F)ccc1Oc1cncnc1N1CC2(CCN(C[C@@H]3CC[C@@H](NS(=O)(=O)N4CCC4)CO3)CC2)C1)C1CC(F)(F)C1 [Compound 118, 2-((4-(7-(((2S,5R)-5-(Azetidine-1-sulfonamido)tetrahydro-2H-pyran-2-yl)methyl)-2,7-diazaspiro[3.5]nonan-2-yl)pyrimidin-5-yl)oxy)-N-(3,3-difluorocyclobutyl)-5-fluoro-N-isopropylbenzamide] |  |  | ++ (“++” means ≥33% and <66%) | + (“+” means <33%) |  |  |  | < 1 nM
